Assay results as given in patent US11078216B2, “Bisaryl amides as NRF2 activators” (GLAXOSMITHKLINE INTELLECTUAL PROPERTY DEVELOPMENT LIMITED, priority 2016, dated 2021).
pEC50: −log10 of the molar value.

Tested on: NRF2 (NQO1 activity as marker for NRF2 activation), BEAS-2B cells
Experiment: BEAS-2B NQO1 MTT Assay
Type: cell-based
Details: Homo sapiens, EC50 of NQO1 specific activity induction, 48 hours incubation, read-out: EC50
Outline: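 As a marker of NRF2 activation, NQO1 specific activity was read from the rate of absorbance change at 570 nm in MTT cocktail over 30 minutes. Lysates came from BEAS-2B cells treated for 48 hours at 37° C, and EC50 was derived by 3-parameter fitting.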

SMILES | pEC50
CC[C@@H]1CN(Cc2cc([C@@H](c3ccc4c(nnn4CC)c3C)C(C)(C)C(=O)NCCNC)ccc2C)S(=O)(=O)c2cccnc2O1 [Example 102, (S)-3-(3-(((R)-4-Ethyl-1,1-dioxido-3,4-dihydro-2H-pyrido[2,3-b][1,4,5]oxathiazepin-2-yl)methyl)-4-methylphenyl)-3-(1-ethyl-4-methyl-1H-benzo[d][1,2,3]triazol-5-yl)-2,2-dimethyl-N-(2-(methylamino)ethyl) propanamide] | 7.00 to 8.00
CC[C@H]1Cc2ncccc2S(=O)(=O)N(Cc2cc([C@H](CC(=O)Nc3cccnc3)c3ccc4c(nnn4CC)c3C)ccc2C)C1 [Example 103, (S)-3-(3-(((S)-4-Ethyl-1,1-dioxido-4,5-dihydropyrido[2,3-f][1,2]thiazepin-2(3H)-yl)methyl)-4-methylphenyl)-3-(1-ethyl-4-methyl-1H-benzo[d][1,2,3]triazol-5-yl)-N-(pyridin-3-yl)propanamide] | 7.00 to 8.00
CC[C@@H]1CN(Cc2cc([C@@H](c3ccc4c(nnn4CC)c3C)C(C)(C)C(=O)NCc3ncc[nH]3)ccc2C)S(=O)(=O)c2cccnc2O1 [Example 104, (S)-N-((1H-Imidazol-2-yl)methyl)-3-(3-(((R)-4-ethyl-1,1-dioxido-3,4-dihydro-2H-pyrido[2,3-b][1,4,5]oxathiazepin-2-yl)methyl)-4-methylphenyl)-3-(1-ethyl-4-methyl-1H-benzo[d][1,2,3]triazol-5-yl)-2,2-dimethylpropanamide] | 6.00 to 7.00
CC[C@H]1Cc2ncccc2S(=O)(=O)N(Cc2cc([C@H](CC(=O)Nc3cncnc3)c3ccc4c(nnn4CC)c3C)ccc2C)C1 [Example 105, (S)-3-(3-(((S)-4-Ethyl-1,1-dioxido-4,5-dihydropyrido[2,3-f][1,2]thiazepin-2(3H)-yl)methyl)-4-methylphenyl)-3-(1-ethyl-4-methyl-1H-benzo[d][1,2,3]triazol-5-yl)-N-(pyrimidin-5-yl)propanamide] | 7.00 to 8.00
CC[C@@H]1CN(Cc2cc([C@@H](c3ccc4c(nnn4CC)c3C)C(C)(C)C(=O)NC3CCS(=O)(=O)C3)ccc2C)S(=O)(=O)c2cccnc2O1 (stereo partly drawn) [Example 106, (3S)-N-(1,1-Dioxidotetrahydrothio-phen-3-yl)-3-(3-(((R)-4-ethyl-1,1-dioxido-3,4-dihydro-2H-pyrido[2,3-b][1,4,5]oxathiazepin-2-yl)methyl)-4-methylphenyl)-3-(1-ethyl-4-methyl-1H-benzo[d][1,2,3]triazol-5-yl)-2,2-dimethylpropanamide] | 6.00 to 7.00
CC[C@@H]1CN(Cc2cc([C@H](CC(=O)Nc3ccnnc3)c3ccc4c(nnn4CC)c3C)ccc2C)S(=O)(=O)c2cccnc2O1 [Example 107, (S)-3-(3-(((R)-4-Ethyl-1,1-dioxido-3,4-dihydro-2H-pyrido[2,3-b][1,4,5]oxathiazepin-2-yl)methyl)-4-methylphenyl)-3-(1-ethyl-4-methyl-1H-benzo[d][1,2,3]triazol-5-yl)-N-(pyridazin-4-yl)propanamide] | 6.00 to 7.00
CC[C@@H]1CN(Cc2cc([C@H](CC(=O)Nc3ccncn3)c3ccc4c(nnn4CC)c3C)ccc2C)S(=O)(=O)c2cccnc2O1 [Example 108, (S)-3-(3-(((R)-4-Ethyl-1,1-dioxido-3,4-dihydro-2H-pyrido[2,3-b][1,4,5]oxathiazepin-2-yl)methyl)-4-methylphenyl)-3-(1-ethyl-4-methyl-1H-benzo[d][1,2,3]triazol-5-yl)-N-(pyrimidin-4-yl)propanamide] | 6.00 to 7.00
CC[C@@H]1CN(Cc2cc([C@H](CC(=O)Nc3cncnc3)c3ccc4c(nnn4CC)c3C)ccc2C)S(=O)(=O)c2cccnc2O1 [Example 109, (S)-3-(3-(((R)-4-Ethyl-1,1-dioxido-3,4-dihydro-2H-pyrido[2,3-b][1,4,5]oxathiazepin-2-yl)methyl)-4-methylphenyl)-3-(1-ethyl-4-methyl-1H-benzo[d][1,2,3]triazol-5-yl)-N-(pyrimidin-5-yl)propanamide] | 7.00 to 8.00
CC[C@@H]1CN(Cc2cc([C@H](CC(=O)Nc3cccnc3)c3ccc4c(nnn4CC)c3C)ccc2Cl)S(=O)(=O)c2cccnc2O1 [Example 110, (S)-3-(4-Chloro-3-(((R)-4-ethyl-1,1-dioxido-3,4-dihydro-2H-pyrido[2,3-b][1,4,5]oxathiazepin-2-yl)methyl)phenyl)-3-(1-ethyl-4-methyl-1H-benzo[d][1,2,3]triazol-5-yl)-N-(pyridin-3-yl)propanamide] | 7.00 to 8.00
CC[C@@H]1CN(Cc2cc([C@@H](c3ccc4c(nnn4C)c3C)C(C)(C)C(=O)Nc3ccncc3)ccc2C)Cc2cnccc2O1 [Example 112, (S)-3-(1,4-Dimethyl-1H-benzo[d][1,2,3]triazol-5-yl)-3-(3-(((R)-2-ethyl-2,3-dihydropyrido[3,4-f][1,4]oxazepin-4(5H)-yl)methyl)-4-methylphenyl)-2,2-dimethyl-N-(pyridin-4-yl)propanamide] | 6.00 to 7.00
CC[C@@H]1CN(Cc2cc([C@@H](c3ccc4c(nnn4CC)c3C)C(C)(C)C(=O)N[C@H]3CCOC3)ccc2C)S(=O)(=O)c2cccnc2O1 [Example 113, (S)-3-(3-(((R)-4-Ethyl-1,1-dioxido-3,4-dihydro-2H-pyrido[2,3-b][1,4,5]oxathiazepin-2-yl)methyl)-4-methylphenyl)-3-(1-ethyl-4-methyl-1H-benzo[d][1,2,3]triazol-5-yl)-2,2-dimethyl-N-((S)-tetrahydrofuran-3-yl)propanamide] | 7.00 to 8.00
CC[C@@H]1CN(Cc2cc([C@@H](c3ccc4c(nnn4CC)c3C)C(C)(C)C(=O)N[C@@H]3CCOC3)ccc2C)S(=O)(=O)c2cccnc2O1 [Example 114, (S)-3-(3-(((R)-4-Ethyl-1,1-dioxido-3,4-dihydro-2H-pyrido[2,3-b][1,4,5]oxathiazepin-2-yl)methyl)-4-methylphenyl)-3-(1-ethyl-4-methyl-1H-benzo[d][1,2,3]triazol-5-yl)-2,2-dimethyl-N-((R)-tetrahydrofuran-3-yl)propanamide] | 7.00 to 8.00
CC[C@@H]1CN(Cc2cc([C@@H](c3ccc4c(nnn4CC)c3C)C(C)(C)C(=O)Nc3cnc(SC)nc3)ccc2C)S(=O)(=O)c2cccnc2O1 [Example 115, (S)-3-(3-(((R)-4-Ethyl-1,1-dioxido-3,4-dihydro-2H-pyrido[2,3-b][1,4,5]oxathiazepin-2-yl)methyl)-4-methylphenyl)-3-(1-ethyl-4-methyl-1H-benzo[d][1,2,3]triazol-5-yl)-2,2-dimethyl-N-(2-(methylthio)pyrimidin-5-yl)propanamide] | 8.00 to 9.00
CC[C@@H]1CN(Cc2cc([C@H](c3ccc4c(nnn4CC)c3C)C(C)(C)C(=O)Nc3cccnc3)ccc2C)S(=O)(=O)c2cccnc2O1 [Example 116, (R)-3-(3-(((R)-4-Ethyl-1,1-dioxido-3,4-dihydro-2H-pyrido[2,3-b][1,4,5]oxathiazepin-2-yl)methyl)-4-methylphenyl)-3-(1-ethyl-4-methyl-1H-benzo[d][1,2,3]triazol-5-yl)-2,2-dimethyl-N-(pyridin-3-yl)propanamide] | 7.00 to 8.00
CC[C@@H]1CN(Cc2cc([C@@H](c3ccc4c(nnn4CC)c3C)C(C)(C)C(=O)Nc3cncnc3)ccc2C)S(=O)(=O)c2cccnc2O1 [Example 117, (S)-3-(3-(((R)-4-Ethyl-1,1-dioxido-3,4-dihydro-2H-pyrido[2,3-b][1,4,5]oxathiazepin-2-yl)methyl)-4-methylphenyl)-3-(1-ethyl-4-methyl-1H-benzo[d][1,2,3]triazol-5-yl)-2,2-dimethyl-N-(pyrimidin-5-yl)propanamide] | 8.00 to 9.00
CC[C@@H]1CN(Cc2cc([C@H](CC(=O)Nc3cnccn3)c3ccc4c(nnn4CC)c3C)ccc2C)S(=O)(=O)c2cccnc2O1 [Example 118, (S)-3-(3-(((R)-4-Ethyl-1,1-dioxido-3,4-dihydro-2H-pyrido[2,3-b][1,4,5]oxathiazepin-2-yl)methyl)-4-methylphenyl)-3-(1-ethyl-4-methyl-1H-benzo[d][1,2,3]triazol-5-yl)-N-(pyrazin-2-yl)propanamide] | 7.00 to 8.00
CC[C@H]1Cc2ncccc2S(=O)(=O)N(Cc2cc([C@@H](c3ccc4c(nnn4CC)c3C)C(C)(C)C(=O)Nc3cccnc3)ccc2C)C1 [Example 119, (S)-3-(3-(((S)-4-Ethyl-1,1-dioxido-4,5-dihydropyrido[2,3-f][1,2]thiazepin-2(3H)-yl)methyl)-4-methylphenyl)-3-(1-ethyl-4-methyl-1H-benzo[d][1,2,3]triazol-5-yl)-2,2-dimethyl-N-(pyridin-3-yl)propanamide] | 8.00 to 9.00
CC[C@@H]1CN(Cc2cc([C@@H](c3ccc4c(nnn4CC)c3C)C(C)(C)C(=O)Nc3cccnc3)ccc2C)S(=O)(=O)c2cccnc2O1 [Example 120, (S)-3-(3-(((R)-4-Ethyl-1,1-dioxido-3,4-dihydro-2H-pyrido[2,3-b][1,4,5]oxathiazepin-2-yl)methyl)-4-methylphenyl)-3-(1-ethyl-4-methyl-1H-benzo[d][1,2,3]triazol-5-yl)-2,2-dimethyl-N-(pyridin-3-yl)propanamide] | 8.00 to 9.00
CC[C@@H]1CN(Cc2cc([C@H](CC(=O)Nc3ncccn3)c3ccc4c(nnn4CC)c3C)ccc2C)S(=O)(=O)c2cccnc2O1 [Example 121, (S)-3-(3-(((R)-4-Ethyl-1,1-dioxido-3,4-dihydro-2H-pyrido[2,3-b][1,4,5]oxathiazepin-2-yl)methyl)-4-methylphenyl)-3-(1-ethyl-4-methyl-1H-benzo[d][1,2,3]triazol-5-yl)-N-(pyrimidin-2-yl)propanamide] | 6.00 to 7.00
CC[C@@H]1CN(Cc2cc([C@H](CC(=O)Nc3cccnn3)c3ccc4c(nnn4CC)c3C)ccc2C)S(=O)(=O)c2cccnc2O1 [Example 122, (S)-3-(3-(((R)-4-Ethyl-1,1-dioxido-3,4-dihydro-2H-pyrido[2,3-b][1,4,5]oxathiazepin-2-yl)methyl)-4-methylphenyl)-3-(1-ethyl-4-methyl-1H-benzo[d][1,2,3]triazol-5-yl)-N-(pyridazin-3-yl)propanamide] | 6.00 to 7.00
